# Target: T1, human IDO1/HEK293 cells (Homo sapiens, UniProt P14902)
# T1 construct: expressed in transfected cells
# Test: HEK Human IDO-1 cell-based IDO inhibition assay (kynurenine production)
# Conditions: HEK293 cells stably expressing human IDO1, 20 hours incubation, absorbance at 490 nm; read-out: HEK Human IDO-1 Bio Activity (IDO IC50)
# Summary of the method: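 Stopped with 0.2% TCA, 50 °C 30 min; supernatant mixed with 0.2% Ehrlich reagent, 30 min RT, kynurenine read as absorbance at 490 nm.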
# T1 sequence (P14902 whole entry): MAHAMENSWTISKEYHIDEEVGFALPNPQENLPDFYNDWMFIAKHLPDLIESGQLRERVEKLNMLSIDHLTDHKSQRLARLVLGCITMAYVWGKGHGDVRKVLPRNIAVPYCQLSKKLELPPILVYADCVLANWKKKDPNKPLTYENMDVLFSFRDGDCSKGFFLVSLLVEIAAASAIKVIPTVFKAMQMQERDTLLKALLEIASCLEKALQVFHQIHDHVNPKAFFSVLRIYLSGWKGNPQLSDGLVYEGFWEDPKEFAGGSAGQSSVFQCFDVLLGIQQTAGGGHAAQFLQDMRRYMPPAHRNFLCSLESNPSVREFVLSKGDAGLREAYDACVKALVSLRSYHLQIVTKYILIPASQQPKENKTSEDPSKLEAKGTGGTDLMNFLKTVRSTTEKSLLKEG
row,Compound,IC50 [nM]
1,"O=C(NCC1(O)CCN(c2ccnc3ccc(F)cc23)CC1)c1ccc(Cl)cc1 [Example 81, 4-Chloro-N-((1-(6-fluoroquinolin-4-yl)-4-hydroxypiperidin-4-yl)methyl)benzamide]",< 2000
2,"O=C(Cc1ccc(Cl)cc1)N[C@H]1CC[C@@H](c2ccnc3ccc(F)cc32)CC1 [Example 147, 2-(4-chlorophenyl)-N-(cis-4-(6-fluoroquinolin-4-yl)cyclohexyl)acetamide]",< 2000
3,"Cc1ccc(S(=O)(=O)N[C@H](C)[C@H]2CC[C@@H](c3ccnc4ccc(F)cc43)CC2)cc1 [Example 41, N-((R)-1-((1s,4S)-4-(6-fluoroquinolin-4-yl)cyclohexyl)ethyl)-4-methylbenzenesulfonamide]",< 250
4,"CC1(CNC(=O)c2ccc(Cl)cc2)CCN(c2ccnc3ccc(F)cc23)CC1 [Example 226, 4-Chloro-N-((1-(6-fluoroquinolin-4-yl)-4-methylpiperidin-4-yl)methyl)benzamide]",< 2000
5,"Cc1nnc(-c2ccc(C(=O)N[C@H](C)[C@H]3CC[C@@H](c4ccnc5ccc(F)cc54)CC3)cc2)o1 [Example 232, N—((R)-1-((1s,4S)-4-(6-fluoroquinolin-4-yl)cyclohexyl)ethyl)-4-(5-methyl-1,3,4-oxadiazol-2-yl)benzamide]",< 250
6,"CC(C(=O)N[C@H]1CC[C@H](c2ccnc3ccc(F)cc32)CC1)c1ccc(Cl)cc1 (stereo partly drawn) [Example 145, 2-(4-chlorophenyl)-N-(trans-4-(6-fluoroquinolin-4-yl)cyclohexyl)propanamide]",< 2000
7,"COc1ccc(-c2ccc(C(=O)N[C@H](C)[C@H]3CC[C@@H](c4ccnc5ccc(F)cc54)CC3)nc2)cc1F [Example 178, 5-(3-fluoro-4-methoxyphenyl)-N-((R)-1-(cis-4-(6-fluoroquinolin-4-yl)cyclohexyl)ethyl)picolinamide]",< 250
8,"Cc1cccc(S(=O)(=O)N[C@H](C)[C@H]2CC[C@@H](c3ccnc4ccc(F)cc43)CC2)c1 [Example 40, N—((R)-1-((1 s,4S)-4-(6-Fluoroquinolin-4-yl)cyclohexyl)ethyl)-3-methylbenzenesulfonamide]",< 2000
9,"Cc1c(C2CCC(C(C)NC(=O)c3ccc(-c4ccccc4)cc3)CC2)ccnc1F (single isomer, unassigned) [Example 222, N-(1-(4-(2-fluoro-3-methylpyridin-4-yl)cyclohexyl)ethyl)-[1,1′-biphenyl]-4-carboxamide]",< 2000
10,"CC(NC(=O)c1ccc(Cl)cc1)C1CCC(c2ccnc(C(F)(F)F)c2)CC1 (single isomer, unassigned) [Example 215, 4-chloro-N-(1-(4-(2-(trifluoromcthyl)pyridin-4-yl)cyclohcxyl)ethyl)benzamide]",< 2000
11,"C[C@@H](NC(=O)c1ccc(-c2ccc(C(C)(C)O)cc2)cc1)[C@H]1CC[C@@H](c2ccnc3ccc(F)cc32)CC1 [Example 242, N-((R)-1-((1s,4S)-4-(6-fluoroquinolin-4-yl)cyclohexyl)ethyl)-4′-(2-hydroxypropan-2-yl)biphenyl-4-carboxamide]",< 250
12,"Cc1cc(C2CCC(C(C)NC(=O)c3ccc(Cl)cc3)CC2)ccn1 (stereo not shown) [Example 157a, 4-Chloro-N-(1-(4-(2-methylpyridin-4-yl)cyclohexyl)ethyl)benzamide]",< 250
13,COc1ccc(C(=O)NC(C)C2CCC(Oc3ccnc(C)c3Cl)CC2)cc1 (racemic) [Example 209],< 250
14,"Cc1ccc(C(=O)N[C@H](C)[C@H]2CC[C@@H](c3ccnc4ccc(F)cc43)CC2)cc1 [Example 51, N-((R)-1-((1s,4S)-4-(6-fluoroquinolin-4-yl)cyclohexyl)ethyl)-4-methylbenzamide]",< 50
15,"C[C@@H](NC(=O)c1ccc(C2(C)CC2)cc1)[C@H]1CC[C@@H](c2ccnc3ccc(F)cc32)CC1 [Example 248, N-((R)-1-((1s,4S)-4-(6-fluoroquinolin-4-yl)cyclohexyl)ethyl)-4-(1-methylcyclopropyl)benzamide]",< 50

# The remaining lines, values ahead:
row,IC50 [nM],Compound
1,< 50,"C[C@@H](NC(=O)c1ccc(Cl)cc1)[C@H]1CC[C@@H](c2ccnc3ccc(F)cc32)CC1 [Example 47, 4-Chloro-N—((R)-1-((1 s,4S)-4-(6-fluoroquinolin-4-yl)cyclohexyl)ethyl)benzamide]"
2,< 50,"COc1ccccc1C(=O)N[C@H](C)[C@H]1CC[C@@H](c2ccnc3ccc(F)cc32)CC1 [Example 52, N-((R)-1-((1s,4S)-4-(6-fluoroquinolin-4-yl)cyclohexyl)ethyl)-2-methoxybenzamide]"
3,< 50,"CCC(NC(=O)c1ccc(C#N)cc1)C1CCC(c2ccnc3ccc(F)cc23)CC1 (single isomer, unassigned) [Example 165d, 4-Cyano-N-(1-(4-(6-fluoroquinolin-4-yl)cyclohexyl)propyl)benzamide]"
4,< 50,"COc1cccc(C(=O)N[C@H](C)[C@H]2CC[C@@H](c3ccnc4ccc(F)cc43)CC2)c1 [Example 53, N-((R)-1-((1s,4S)-4-(6-fluoroquinolin-4-yl)cyclohexyl)ethyl)-3-methoxybenzamide]"
5,< 50,"CCC(NC(=O)c1ccc(Cl)cc1)[C@H]1CC[C@H](Oc2ccnc3ccccc23)CC1 (mixture of isomers) [Example 71, 4-Chloro-N-(1-((trans)-4-(quinolin-4-yloxy)cyclohexyl)propyl)benzamide]"
6,< 50,"C[C@@H](NC(=O)c1ccc(-c2ccccc2)cc1)[C@H]1CC[C@@H](c2ccnc3ccc(F)cc32)CC1 [Example 70, N—((R)-1-((1s,4S)-4-(6-fluoroquinolin-4-yl)cyclohexyl)ethyl)-[1,1′-biphenyl]-4-carboxamide]"
7,< 50,"Cc1c(C2CCC(C(C)NC(=O)c3ccc(-c4ccccc4)cc3)CC2)ccnc1F (single isomer, unassigned) [Example 223, N-(1-(4-(2-fluoro-3-methylpyridin-4-yl)cyclohexyl)ethyl)-[1,1′-biphenyl]-4-carboxamide]"
8,< 50,"C[C@@H](NC(=O)c1cccc(F)c1)[C@H]1CC[C@@H](c2ccnc3ccc(F)cc32)CC1 [Example 55, 3-fluoro-N-((R)-1-((1S,4S)-4-(6-fluoroquinolin-4-yl)cyclohexyl)ethyl)benzamide]"
9,< 50,"Cc1nccc(C2CCC(C(C)NC(=O)c3ccc(Cl)cc3)CC2)c1C (stereo not shown) [Example 159a, 4-chloro-N-(1-(4-(2,3-dimcthylpyridin-4-yl)cyclohexyl)ethyl)benzamide]"
10,< 50,"COc1nc(-c2ccc(C(=O)N[C@H](C)[C@H]3CC[C@@H](c4ccnc5ccc(F)cc54)CC3)cc2)cs1 [Example 241, N-((R)-1-((1s,4S)-4-(6-fluoroquinolin-4-yI)cyclohexyl)ethyl)-4-(2-methoxythiazol-4-yl)benzamide]"
11,< 50,"C[C@@H](NC(=O)c1ccccc1)[C@H]1CC[C@@H](c2ccnc3ccc(F)cc32)CC1 [Example 48, N-((R)-1-((1s,4S)-4-(6-fluoroquinolin-4-yl)cyclohexyl)ethyl)benzamide]"
12,< 50,"C[C@@H](NC(=O)c1ccc(F)cc1)[C@H]1CC[C@@H](c2ccnc3ccc(F)cc32)CC1 [Example 60, 4-fluoro-N-((R)-1-((1s,4S)-4-(6-fluoroquinolin-4-yl)cyclohexyl)ethyl)benzamide]"
13,< 50,"C[C@@H](NC(=O)c1ccc(-c2cn(C)cn2)cc1)[C@H]1CC[C@@H](c2ccnc3ccc(F)cc32)CC1 [Example 235, N-((R)-1-((1s,4S)-4-(6-fluoroquinolin-4-yl)cyclohexyl)cthyl)-4-(1-methyl-1H-imidazol-4-yl)benzamide]"
14,< 50,"CCC(NC(=O)c1ccc(Cl)cc1)C1CCC(c2ccnc3ccc(F)cc23)CC1 (single isomer, unassigned) [Example 164c, 4-Chloro-N-(1-(4-(6-fluoroquinolin-4-yl)cyclohexyl)propyl)benzamide]"
15,< 50,"CCC(NC(=O)c1ccc(Cl)cc1)[C@H]1CC[C@@H](c2ccnc3ccc(C(F)(F)F)cc32)CC1 (stereo partly shown) [Example 254, 4-chloro-N-(1-((1s, 4s)-4-(6-(trifluoromethyl)quinolin-4-yl)cyclohexyl)propyl)benzamide]"
16,< 50,"CCC(NC(=O)c1ccc(-c2ccccc2)cc1)[C@H]1CC[C@@H](c2ccnc3ccc(C(F)(F)F)cc32)CC1 (mixture of isomers) [Example 230, N-(1-((1s,4s)-4-(6-(trifluoromethyl)quinolin-4-yl)cyclohexyl)propyl)biphenyl-4-carboxamide]"
17,< 50,"CC[C@H](NC(=O)c1ccc(Cl)cc1)[C@H]1CC[C@H](c2cnc3ccccc3c2)CC1 (single isomer, unassigned) [Example 203d]"
18,< 50,"O=C(Nc1ccc(Cl)cc1)N[C@H]1CC[C@H](c2ccnc3ccc(F)cc32)CC1 [Example 119, 1-(4-Chlorophenyl)-3-(trans-4-(6-fluoroquinolin-4-yl)cyclohexyl)urea]"
19,< 50,"C[C@@H](NC(=O)c1ccc(-c2ncc(C#N)s2)cc1)[C@H]1CC[C@@H](c2ccnc3ccc(F)cc32)CC1 [Example 253, 4-(5-cyanothiazol-2-yl)-N-((R)-1-((1s,4S)-4-(6-fluoroquinolin-4-yl)cyclohexyl)ethyl)benzamide]"
20,< 50,"CCOc1ccc(C(=O)N[C@H](C)[C@H]2CC[C@@H](c3ccnc4ccc(F)cc43)CC2)nc1 [Example 163, 5-Ethoxy-N—((R)-1-(cis-4-(6-fluoroquinolin-4-yl)cyclohexyl)ethyl)picolinamide]"
21,< 50,"Cc1cnccc1C1CCC(C(C)NC(=O)c2ccc(Cl)cc2)CC1 (stereo not shown) [Example 160a, 4-chloro-N-(1-(4-(3-methylpyridin-4-yl)cyclohexyl)ethyl)benzamide]"

# System: not given
# Test: not given
# Conditions: not given
row,melting point [°C],Compound
1,91 to 94,"O=C(NCC1(O)CCN(c2ccnc3ccc(F)cc23)CC1)c1ccc(Cl)cc1 [Example 81, 4-Chloro-N-((1-(6-fluoroquinolin-4-yl)-4-hydroxypiperidin-4-yl)methyl)benzamide]"

# — US20180325889A1, “IMMUNOREGULATORY AGENTS” (FLEXUS BIOSCIENCES, INC., priority 2014, published 2018)
